Experimental data taken from ChEMBL document CHEMBL6103605, “Discovery of First-in-Class BAZ2A/B and BAZ2B-Selective Degraders” (ACS Med Chem Lett, 2025).
pEC50, pKd: −log10 of the molar value.

Experiments:
[1] = target: Bromodomain adjacent to zinc finger domain protein 2B (Homo sapiens, UniProt Q9UIF8)
Description: Binding affinity to BAZ2B bromodomain (unknown origin) assessed as dissociation constant by BROMOscan technology

[2] = target: von Hippel-Lindau disease tumor suppressor/Bromodomain adjacent to zinc finger domain protein 2B (Homo sapiens, UniProt Q9UIF8+P40337); assay: PROTAC activity at BAZ2B/VHL in human PC-3 cells assessed as degradation after 4 hrs by Western blot analysis
[3] = target: Bromodomain adjacent to zinc finger domain protein 2A (Homo sapiens, UniProt Q9UIF9)
Description: Binding affinity to BAZ2A bromodomain (unknown origin) assessed as dissociation constant by BROMOscan technology

[4] = target: von Hippel-Lindau disease tumor suppressor/Bromodomain adjacent to zinc finger domain protein 2A (Homo sapiens, UniProt Q9UIF9+P40337); assay: PROTAC activity at BAZ2A/VHL in human PC-3 cells assessed as degradation after 4 hrs by Western blot analysis
[5] = Induction of BAZ2A level in human PC-3 cells measured after 4 hrs by Western blot analysis; conditions: PC-3, 4 h
[6] = target: von Hippel-Lindau disease tumor suppressor/Bromodomain adjacent to zinc finger domain protein 2A (Homo sapiens, UniProt P40337+Q9UIF9); assay: PROTAC activity at BAZ2A/VHL in human PC-3 cells assessed as BAZ2A degradation after 4 hrs by Western blot analysis

Compound: Cn1cc(CCn2c(CO)nc(-c3cnn(C)c3)c2-c2ccc(C#N)cc2)cn1
- pKd [1]: 8.04

Compound: COCc1nc(-c2cnn(C)c2)c(-c2ccc(C#N)cc2)n1CCc1cnn(C)c1
- pKd [1]: 8.00

Compound: Cc1ncsc1-c1ccc(CNC(=O)[C@@H]2C[C@@H](O)CN2C(=O)[C@@H](NC(=O)C2(F)CC2)C(C)(C)SC[C@H]2CC[C@H](COCc3nc(-c4cnn(C)c4)c(-c4ccc(C#N)cc4)n3CCc3cnn(C)c3)CC2)cc1
- DC50 [2]: 0.25 µM
- pKd [3]: 8.32
- DC50 [4]: 0.18 µM
- pKd [1]: 7.80

Compound: Cc1ncsc1-c1ccc(CNC(=O)[C@@H]2C[C@@H](O)CN2C(=O)[C@@H](NC(=O)C2(F)CC2)C(C)(C)C)c(OC[C@H]2CC[C@H](COCc3nc(-c4cnn(C)c4)c(-c4ccc(C#N)cc4)n3CCc3cnn(C)c3)CC2)c1
- DC50 [2]: 0.019 µM
- pKd [3]: 8.33
- pEC50 [5]: 7.46
- pKd [1]: 7.29
- pEC50 [6]: 7.46
